Experimental data from patent US20030211577A1, “Novel G protein-coupled receptor, GAVE7” (priority 2001, published 2003).

Test system: GAVE7 expression in THP-1 cells
Assay: Immune cell regulation: GAVE7 expression in PMA-differentiated THP-1 cells by Northern blot or TaqMan assay
Type: cell-based
Conditions: PMA differentiated THP-1 cells stimulated with LPS (10 μg/ml) for 4 hours and 24 hours, actin control
Method: THP-1 cells were obtainied from the American Type Culture Collection (Manassas, Va.) and maintained in RPMI culture medium (RPMI 1640, 100 IU/ml penicillin-streptomycin, 10% heat-inactivated fetal bovine serum) at 37° C. in a humidfied 95% air/5% CO2 tissue culture incubator. THP-1 cells were treated with 10 nM phorbol-12-myristate-13-acetate (PMA) and incubated overnight to differentiate the monocyte into an adhereent macrophage-type cell. The differentiated cells adhere, stop proliferating and express high levels of CD14. LPS activates macrophages and elicits an inflammatory response. The cells were washed once with the culture medium and grown for an additional 48 hours in the absence of PMA. The PMA differentiated cells were stimulted with or without LPS (10 μg/ml) for 4 hours and 24 hours.
The cells then were assayed for GAVE7 expression by Northern blot or TaqMan assay. Cell exposed to actin served as a control.

With Lipopolysaccharide [LPS] the GAVE7 expression was “down-regulated”.
